From ChEMBL document CHEMBL4387711, “Discovery of niclosamide and its O-alkylamino-tethered derivatives as potent antibacterial agents against carbapenemase-producing and/or colistin resistant Enterobacteriaceae isolates” (2019)
Calls of active or inactive are those of the source. The rule behind the calls is not given here.

What was measured:
[1] = tested on: Klebsiella aerogenes; assay: Antibacterial activity against colistin-resistant Enterobacter aerogenes 53 assessed as inhibition of growth at 50 uM after 18 hrs; format: functional, organism-based
[2] = tested on: Enterobacter cloacae; assay: Antibacterial activity against colistin-resistant Enterobacter cloacae 142 assessed as inhibition of growth at 50 uM after 18 hrs; format: functional, organism-based
[3] = tested on: Klebsiella pneumoniae; assay: Antibacterial activity against colistin-susceptible VIM1/carbapenemase-producing Klebsiella pneumoniae 07 assessed as inhibition of growth at 50 uM after 18 hrs; format: functional, organism-based
[4] = tested on: Klebsiella pneumoniae; assay: Antibacterial activity against colistin-resistant VIM1/DHAI/carbapenemase-producing Klebsiella pneumoniae 21 assessed as inhibition of growth at 50 uM after 18 hrs; format: functional, organism-based
[5] = tested on: Enterobacter cloacae; assay: Antibacterial activity against colistin-resistant Enterobacter cloacae 190 assessed as inhibition of growth at 50 uM after 18 hrs; format: functional, organism-based
[6] = tested on: Klebsiella pneumoniae; assay: Antibacterial activity against colistin-resistant OXA-48/CTX-M-15/carbapenemase-producing Klebsiella pneumoniae 29 assessed as inhibition of growth at 50 uM after 18 hrs; format: functional, organism-based
[7] = tested on: Enterobacter cloacae; assay: Antibacterial activity against colistin-resistant Enterobacter cloacae 297 assessed as inhibition of growth at 50 uM after 18 hrs; format: functional, organism-based
[8] = tested on: Enterobacter cloacae; assay: Antibacterial activity against colistin-resistant Enterobacter cloacae 32 assessed as inhibition of growth at 50 uM after 18 hrs; format: functional, organism-based
[9] = tested on: Escherichia coli; assay: Antibacterial activity against colistin-susceptible NDM1/KPC-producing Escherichia coli assessed as inhibition of growth at 50 uM after 18 hrs; format: functional, organism-based
[10] = tested on: Klebsiella pneumoniae; assay: Antibacterial activity against colistin-susceptible OXA-48/CTX-M-15/carbapenemase-producing Klebsiella pneumoniae 28 assessed as inhibition of growth at 50 uM after 18 hrs; format: functional, organism-based
[11] = tested on: Enterobacter cloacae; assay: Antibacterial activity against colistin-resistant Enterobacter cloacae 280 assessed as inhibition of growth at 50 uM after 18 hrs; format: functional, organism-based
[12] = tested on: Klebsiella pneumoniae; assay: Antibacterial activity against colistin-susceptible NDM-1/carbapenemase-producing Klebsiella pneumoniae assessed as inhibition of growth at 50 uM after 18 hrs; format: functional, organism-based
[13] = tested on: Klebsiella aerogenes; assay: Antibacterial activity against colistin-resistant Enterobacter aerogenes 3 assessed as inhibition of growth at 50 uM after 18 hrs; format: functional, organism-based
[14] = tested on: Enterobacter cloacae; assay: Antibacterial activity against colistin-resistant Enterobacter cloacae 263 assessed as inhibition of growth at 50 uM after 18 hrs; format: functional, organism-based
[15] = tested on: Enterobacter cloacae; assay: Antibacterial activity against colistin-resistant Enterobacter cloacae 272 assessed as inhibition of growth at 50 uM after 18 hrs; format: functional, organism-based
[16] = tested on: Klebsiella pneumoniae; assay: Antibacterial activity against Klebsiella pneumoniae CECT-997 assessed as inhibition of growth at 50 uM after 18 hrs; format: functional, organism-based
[17] = tested on: Klebsiella pneumoniae; assay: Antibacterial activity against colistin-susceptible OXA-48/CTX-M-15/carbapenemase-producing Klebsiella pneumoniae 28 by broth microdilution method; format: functional
[18] = tested on: Enterobacter cloacae; assay: Antibacterial activity against colistin-resistant Enterobacter cloacae 280 by broth microdilution method; format: functional
[19] = tested on: Escherichia coli; assay: Synergistic antibacterial activity against colistin-susceptible NDM1/KPC-producing Escherichia coli in presence of colistin by checkerboard assay; format: functional
[20] = tested on: Escherichia coli; assay: Antibacterial activity against colistin-susceptible NDM1/KPC-producing Escherichia coli by broth microdilution method; format: functional
[21] = tested on: Klebsiella pneumoniae; assay: Antibacterial activity against colistin-susceptible NDM-1/carbapenemase-producing Klebsiella pneumoniae by broth microdilution method; format: functional
[22] = tested on: Klebsiella pneumoniae; assay: Antibacterial activity against carbapenemase/Klebsiella pneumoniae CECT-997 by broth microdilution method; format: functional
[23] = tested on: Enterobacter cloacae; assay: Antibacterial activity against colistin-resistant Enterobacter cloacae 297 by broth microdilution method; format: functional

| Compound | growth inhibition (GI) [1] | growth inhibition (GI) [2] | growth inhibition (GI) [3] | growth inhibition (GI) [4] | growth inhibition (GI) [5] | growth inhibition (GI) [6] | growth inhibition (GI) [7] | growth inhibition (GI) [8] | growth inhibition (GI) [9] | growth inhibition (GI) [10] | growth inhibition (GI) [11] | growth inhibition (GI) [12] | growth inhibition (GI) [13] | growth inhibition (GI) [14] | growth inhibition (GI) [15] | growth inhibition (GI) [16] | further results |
| --- | --- | --- | --- | --- | --- | --- | --- | --- | --- | --- | --- | --- | --- | --- | --- | --- | --- |
| CN1CCC(Oc2ccc(Cl)cc2C(=O)Nc2ccc([N+](=O)[O-])cc2Cl)CC1 | inactive | inactive | inactive | inactive | inactive | inactive | inactive | inactive | inactive | inactive | inactive | inactive | inactive | inactive | inactive | inactive |  |
| CN(C)CCOc1ccc(Cl)cc1C(=O)Nc1ccc([N+](=O)[O-])cc1Cl | inactive | inactive | inactive | inactive | inactive | inactive | inactive | inactive | inactive | inactive | inactive | inactive | inactive | inactive | inactive | inactive |  |
| O=C(Nc1ccc([N+](=O)[O-])cc1Cl)c1cc(Cl)ccc1OC1CCNCC1 | inactive | inactive | inactive | inactive | inactive | inactive | inactive | inactive | inactive | inactive | inactive | inactive | inactive | inactive | inactive | inactive |  |
| NCCOc1ccc(Cl)cc1C(=O)Nc1ccc([N+](=O)[O-])cc1Cl | inactive | inactive | inactive | inactive | inactive | inactive | inactive | inactive | inactive | inactive | inactive | inactive | inactive | inactive | inactive | inactive |  |
| O=C(Nc1ccc([N+](=O)[O-])cc1Cl)c1cc(Cl)ccc1OCCN1CCOCC1 | inactive | inactive | inactive | inactive | inactive | inactive | inactive | inactive | inactive | inactive | inactive | inactive | inactive | inactive | inactive | inactive |  |
| CN1CCN(CCOc2ccc(Cl)cc2C(=O)Nc2ccc([N+](=O)[O-])cc2Cl)CC1 | inactive | inactive | inactive | inactive | inactive | inactive | inactive | inactive | inactive | inactive | inactive | inactive | inactive | inactive | inactive | inactive |  |
| O=C(Nc1ccc([N+](=O)[O-])cc1Cl)c1cc(Cl)ccc1OCCN1CCNCC1 | inactive | inactive | inactive | inactive | inactive | inactive | inactive | inactive | inactive | inactive | inactive | inactive | inactive | inactive | inactive | inactive |  |
| NCCCOc1ccc(Cl)cc1C(=O)Nc1ccc([N+](=O)[O-])cc1Cl | inactive | inactive | inactive | inactive | inactive | inactive | inactive | inactive | inactive | inactive | inactive | inactive | inactive | inactive | inactive | inactive |  |
| O=C(Nc1ccc([N+](=O)[O-])cc1Cl)c1cc(Cl)ccc1OCCN1CCCCC1 | inactive | inactive | inactive | inactive | inactive | inactive | inactive | inactive | inactive | inactive | inactive | inactive | inactive | inactive | inactive | inactive |  |
| CC[C@H](N)COc1ccc(Cl)cc1C(=O)Nc1ccc([N+](=O)[O-])cc1Cl | inactive | inactive | inactive | inactive | inactive | inactive | inactive | inactive | Active | inactive | inactive | inactive | inactive | inactive | inactive | inactive | MIC [17]: inactive; MIC [18]: inactive; fractional inhibitory concentration index (FICI) [19]: 0.5; MIC [20]: > 15 µg/mL; MIC [21]: inactive; MIC [22]: inactive; MIC [23]: inactive |
| NCCOCCOc1ccc(Cl)cc1C(=O)Nc1ccc([N+](=O)[O-])cc1Cl | inactive | inactive | inactive | inactive | inactive | inactive | Active | inactive | Active | inactive | inactive | inactive | inactive | inactive | inactive | inactive | MIC [17]: inactive; MIC [18]: inactive; MIC [20]: > 15 µg/mL; MIC [21]: inactive; MIC [22]: inactive; MIC [23]: > 15 µg/mL |
